Laboratory results taken from PubChem BioAssay (NCI).
Where “and” joins values, the source holds several entries; their conditions need not be identical. Identical values can stand only once.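 Cultured in 96-well plates, cells were exposed to test compound for 48 hours across five concentrations. GI50 = concentration required for 50% inhibition of growth. TGI: concentration producing complete growth inhibition.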

Experiments:
Assay in all cases: NCI tumour cell line growth inhibition, 48 h
UACC-257 melanoma = system: UACC-257 melanoma
HT29 colon = system: HT29 colon
786-0 renal = system: 786-0 renal
PC-3 prostate = system: PC-3 prostate
MOLT-4 leukemia = system: MOLT-4 leukemia
SN12C renal = system: SN12C renal
SW-620 colon = system: SW-620 colon
A549 NSCLC = system: A549 NSCLC
HOP-92 NSCLC = system: HOP-92 NSCLC
OVCAR-8 ovarian = system: OVCAR-8 ovarian

| Structure (SMILES) | GI50 (UACC-257 melanoma) | TGI (UACC-257 melanoma) | GI50 (HT29 colon) | GI50 (786-0 renal) | TGI (786-0 renal) | GI50 (PC-3 prostate) | TGI (PC-3 prostate) | GI50 (MOLT-4 leukemia) | TGI (MOLT-4 leukemia) | GI50 (SN12C renal) | TGI (SN12C renal) | GI50 (SW-620 colon) | TGI (SW-620 colon) | GI50 (A549 NSCLC) | TGI (A549 NSCLC) | GI50 (HOP-92 NSCLC) | TGI (HOP-92 NSCLC) | GI50 (OVCAR-8 ovarian) | TGI (OVCAR-8 ovarian) | TGI (HT29 colon) |
| --- | --- | --- | --- | --- | --- | --- | --- | --- | --- | --- | --- | --- | --- | --- | --- | --- | --- | --- | --- | --- |
| COc1ccc(OC)c(-c2nc3sccn3c2/C=C2/C(=O)Nc3ccccc32)c1 | 11.6 µM | 34.7 µM | 0.355 µM | 0.273 µM | 18.6 µM | 0.359 µM | 14.2 µM | 0.0472 µM | 18.4 µM | 4.65 µM | 33.8 µM | 0.506 µM | 21.4 µM | 0.849 µM | > 60.2 µM | 0.822 µM | 19.1 µM | 0.945 µM | > 46.5 µM |  |
| O=c1cccc(C#CCCCCOC2CCCO2)o1 (stereo not drawn) | 9.49 µM | > 20.2 µM | 16.5 µM | 4.03 µM | 23.6 µM | 6.73 µM | > 54.6 µM | 8.06 µM | > 30.8 µM | 98.6 µM | > 100 µM | 8.96 µM | > 56.7 µM | 9.16 µM | > 48.8 µM | 2.17 µM | 11.5 µM | 14.2 µM | > 80.7 µM | > 60.5 µM |
| O=S(=O)(Nc1ccc(Cl)c(C(F)(F)F)c1)c1ccc(-c2cnc(C3CC3)o2)cc1 | 1.29 µM | 7.93 µM | 0.157 µM | 1.1 µM | 3.58 µM | 0.713 µM | 6.59 µM | 0.622 µM | 14.1 µM | 1.05 µM | 4.71 µM | 0.175 µM | > 35.5 µM | 0.577 µM | > 35.6 µM | 1.04 µM | 4.16 µM | 1.54 µM | > 36.2 µM |  |
| O=C(c1cccs1)c1c(C(F)(F)F)n([O-])c2cc(F)c(F)cc2[n+]1=O | 3.11 µM | 6.79 µM | 9.5 µM | 4.44 µM | 8.75 µM | 2.62 µM | 4.82 µM | 0.498 µM | 7.84 µM | 1.38 µM | 3.59 µM | 2.45 µM | 4.09 µM | 6.16 µM | 12.5 µM | 1.46 µM | 4.24 µM | 2.77 µM | 5.16 µM | 50 µM |
| NC(N)=NC(N)=NCCc1ccccc1 | > 100 µM and 97.3 µM | > 100 µM | > 100 µM | > 100 µM | > 100 µM | 45.3 µM and 60.3 µM | > 100 µM | > 100 µM | > 100 µM | > 100 µM | > 100 µM | > 100 µM | > 100 µM | > 100 µM and 97.1 µM | > 100 µM | 1.51 µM | > 100 µM | > 100 µM | > 100 µM | > 100 µM |
| NC1=C(c2nc(-c3cc4ccccc4oc3=O)cs2)C(c2ccco2)c2c(c3ccccc3oc2=O)O1 (stereo not drawn) | > 150 µg/mL | > 150 µg/mL | > 150 µg/mL | 20.2 µg/mL | 71.3 µg/mL | > 150 µg/mL | > 150 µg/mL | 119 µg/mL | > 150 µg/mL | > 150 µg/mL | > 150 µg/mL | > 150 µg/mL | > 150 µg/mL | > 150 µg/mL | > 150 µg/mL | 53.3 µg/mL | > 150 µg/mL | > 150 µg/mL | > 150 µg/mL | > 150 µg/mL |
| O=C1/C(=C\c2ccccc2)c2ccccc2N1Cc1ccccc1 |  | 17.6 µM |  |  | 23 µM |  | 15.9 µM |  | 5.4 µM |  | 28.9 µM |  | 15.1 µM |  | 22.5 µM |  | 13.8 µM |  | 19 µM | 14.4 µM |
| CCOC(=O)c1c(C)c2c(n1C)CSc1cc(S(=O)(=O)c3ccccc3)c(=O)[nH]c1-2 | 34.5 µM | > 100 µM | 16.3 µM | 35.1 µM | > 100 µM | 14 µM | > 100 µM | 11.2 µM | 98.6 µM | 27.6 µM | > 100 µM | 35.1 µM | > 100 µM | 30.2 µM | > 100 µM | 1.11 µM | 28.5 µM | 36.7 µM | > 100 µM | 34.5 µM |
| C[C@]12CC[C@@H]3c4ccc(O)cc4CC[C@H]3[C@@H]1CC[C@@H]2NS(=O)(=O)c1cccc(Br)c1 | 5.1 µM | 20 µM | 3.76 µM | 3.25 µM | 10.4 µM | 2.83 µM | 12.2 µM | 2.59 µM | 12.7 µM | 2.25 µM | 5.73 µM | 4.07 µM | 18 µM | 3.11 µM | 13.1 µM | 1.85 µM | 6.44 µM | 3.98 µM | 16.7 µM | 12.7 µM |
| CC(=O)N1c2ccccc2C23CCN4CC5=CCOC(O)C(C5CC42)C13 (stereo not drawn) |  | > 100 µM |  |  | > 100 µM |  | > 100 µM |  | > 100 µM |  | > 100 µM |  | > 100 µM |  | > 100 µM |  | > 100 µM |  | > 100 µM | > 100 µM |
| CC1=CC(C)C(O)C(C)/C=C/C(O)C/C=C(/C)C(=O)CC(O)C(C)\C=C/C=C/C=C\C(=O)NC2=C(O)c3cc(C)c(O)c(c3C(=O)C2=O)C1=O (stereo not drawn) |  | > 100 µM |  |  | > 100 µM |  | > 100 µM |  | > 100 µM |  | > 100 µM |  | > 100 µM |  | > 100 µM |  | > 100 µM |  | > 100 µM | > 100 µM |
| Cc1ccnc2c1NC(=O)c1cccnc1N2C1CC1 | > 100 µM | > 100 µM | > 100 µM | > 100 µM | > 100 µM | > 100 µM | > 100 µM | > 100 µM | > 100 µM | > 100 µM | > 100 µM | > 100 µM | > 100 µM | > 100 µM | > 100 µM | > 100 µM | > 100 µM | > 100 µM | > 100 µM | > 100 µM |
| Cc1cc(N2CCN(C)CC2)nc(NC2CCCC(Nc3ccnc4cc(Cl)ccc34)C2)n1 (stereo not drawn) | 2.1 µM | 3.93 µM | 2.14 µM | 1.81 µM | 4.15 µM | 3.35 µM | 11.4 µM | 1.77 µM | 7.59 µM | 3.09 µM | 12.2 µM | 2.48 µM | 10.8 µM | 3.14 µM | 11 µM | 1.67 µM | 3.49 µM | 3.75 µM | 15.5 µM | 6.16 µM |
